These results are taken from patent publication US11000488B2 (priority 2019, dated 2021).

For data set [1] the following is noted: human, in vivo, po; cited from earlier work.
Data set [2] is described as follows: steady-state pharmacokinetics, 50 mg tramadol vs 20 mg desmetramadol every 6 hours, nine doses, trials A and B (B with paroxetine). As to conditions: after tramadol dosing, with vs without paroxetine.

The structures appear in SMILES notation.

For the molecule `COc1ccc2c3c1O[C@H]1C(=O)CC[C@H]4[C@@H](C2)N(C)CC[C@]314` [hydrocodone], the lethal oral dose in data set [1] was 90 mg.

In the case of `COc1cccc(C2(O)CCCCC2CN(C)C)c1` (single isomer, unassigned; (-)) [(−)-tramadol, 1S,2S-tramadol, reference compound], the “levels in trial B as % of levels in trial A” value in data set [2] was determined as 200%.

In the case of `COc1ccc2c3c1O[C@H]1C(=O)CC[C@@]4(O)[C@@H](C2)N(C)CC[C@]314` [oxycodone], in data set [1], the lethal oral dose is 40 mg.

Turning to `COc1cccc([C@@]2(O)CCCC[C@@H]2CN(C)C)c1` [(+)-tramadol, 1R,2R-tramadol, reference compound], the “levels in trial B as % of levels in trial A” value in data set [2] was 200%.
